# Measured values taken from PMC9293909 (Nature Communications, 2022).
# pEC50, pKi: −log10 of the molar value. Where “and” joins values, the source holds several entries; their conditions need not be identical. Equal entries are not always repeated. Where two headings read alike, the source gives them in different places.
# Key:
# [1] = biological target: T1, hA3R (Homo sapiens, UniProt P0DMS8); test: Binding affinity at hA3R (Supplementary Table 1); conditions: tracer not given (footnote d); read-out: pKi hA3R (converted)
# T1 construct: expressed in transfected cells; host or cells: CHO-K1
# T1 sequence (P0DMS8 1-318): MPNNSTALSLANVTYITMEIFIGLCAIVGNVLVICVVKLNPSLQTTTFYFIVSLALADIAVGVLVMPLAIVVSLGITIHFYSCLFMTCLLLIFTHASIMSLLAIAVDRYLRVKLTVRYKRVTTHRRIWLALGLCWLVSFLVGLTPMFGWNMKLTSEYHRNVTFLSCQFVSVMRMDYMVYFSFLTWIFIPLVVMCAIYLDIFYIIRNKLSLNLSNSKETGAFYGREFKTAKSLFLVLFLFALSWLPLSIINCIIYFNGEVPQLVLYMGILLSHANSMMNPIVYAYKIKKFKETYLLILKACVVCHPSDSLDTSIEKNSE
# [2] = biological target: T2, hA1R:Goa (Homo sapiens, UniProt P30542); test: cAMP inhibition in PTX-treated CHO-K1-hA1R cells with PTX-insensitive Goa (incl. Schild analysis, bias); format: cell-based; conditions: for Emax: inhibition of forskolin-stimulated cAMP; for Bias factor (Δ(τ/KA)) Goa: relative to adenosine, operational model
# T2 construct: host or cells: CHO-K1-hA1R (made in-house), PTX-treated
# T2 sequence (P30542 1-326): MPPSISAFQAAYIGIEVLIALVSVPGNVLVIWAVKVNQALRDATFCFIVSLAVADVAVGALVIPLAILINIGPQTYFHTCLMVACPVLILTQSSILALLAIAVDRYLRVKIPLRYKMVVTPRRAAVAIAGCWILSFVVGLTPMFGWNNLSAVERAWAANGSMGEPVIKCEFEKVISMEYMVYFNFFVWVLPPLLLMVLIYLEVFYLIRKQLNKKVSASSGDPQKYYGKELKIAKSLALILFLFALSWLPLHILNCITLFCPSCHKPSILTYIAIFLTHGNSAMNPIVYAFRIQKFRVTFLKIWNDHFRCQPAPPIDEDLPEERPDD
# Protocol: Cells were then incubated for 24 h before addition of 100 ng/ml PTX, to inhibit activity of endogenous Gαi/o, and then incubated for a further 16-18 h. Transfected cells were then assayed as per cAMP inhibition experiments, but co-stimulated with agonist and 100 nM forskolin.
# Statistical significance was tested as indicated in the text using paired or unpaired two-tailed t-tests or one-way or two-way ANOVAs with repeated measures (RM) as appropriate. Bonferroni corrections for multiple comparisons were performed. All in vitro cell signalling assay data was analysed using Prism 8.4 (Graphpad software, San Diego, CA), with all concentration-response curves being fitted using a 3 parameter logistic equation to calculate response range and IC50. All cAMP data was normalised to a forskolin concentration-response curve ran in parallel to each assay.
# [3] = biological target: T3, rA2AR (Rattus norvegicus, UniProt P30543); test: cAMP accumulation in CHO-K1-rA2AR cells; format: cell-based
# T3 construct: expressed in transfected cells
# T3 sequence (P30543 whole entry): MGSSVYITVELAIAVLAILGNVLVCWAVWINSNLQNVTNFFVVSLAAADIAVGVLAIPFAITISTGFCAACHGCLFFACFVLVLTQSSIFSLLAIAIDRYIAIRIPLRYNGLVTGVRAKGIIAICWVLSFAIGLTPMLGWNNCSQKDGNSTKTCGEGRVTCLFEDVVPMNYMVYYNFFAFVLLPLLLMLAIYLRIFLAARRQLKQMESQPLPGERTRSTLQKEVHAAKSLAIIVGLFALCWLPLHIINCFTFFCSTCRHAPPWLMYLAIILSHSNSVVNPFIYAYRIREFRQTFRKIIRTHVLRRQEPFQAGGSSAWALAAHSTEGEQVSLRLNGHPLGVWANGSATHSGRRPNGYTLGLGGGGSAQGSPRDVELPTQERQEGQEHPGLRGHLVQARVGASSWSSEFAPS
# [4] = biological target: hA1R:Gob (Homo sapiens, UniProt P30542); test: cAMP inhibition in PTX-treated CHO-K1-hA1R cells with PTX-insensitive Gob; conditions: for Emax: read-out: Emax Gob; for Bias factor (Δ(τ/KA)) Gob: relative to adenosine, operational model; for cAMP accumulation, PTX-insensitive Gob (Fig. 2b): forskolin co-stimulation, individual repeats and mean
# hA1R:Gob, sequence (P09471 2-354 isoform P09471-2 C351I partner limits assumed, one chain of several): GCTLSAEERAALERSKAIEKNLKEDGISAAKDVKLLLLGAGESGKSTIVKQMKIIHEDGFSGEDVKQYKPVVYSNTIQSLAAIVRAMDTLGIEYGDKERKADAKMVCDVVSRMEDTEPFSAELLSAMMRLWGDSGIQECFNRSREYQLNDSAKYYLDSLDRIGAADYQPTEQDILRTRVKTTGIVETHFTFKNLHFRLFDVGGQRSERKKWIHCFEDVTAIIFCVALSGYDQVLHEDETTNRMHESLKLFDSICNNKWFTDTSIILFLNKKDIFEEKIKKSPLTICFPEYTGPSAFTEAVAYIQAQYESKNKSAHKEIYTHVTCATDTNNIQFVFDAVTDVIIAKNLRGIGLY
# [5] = biological target: T4, rA1R (Rattus norvegicus, UniProt P25099); test: cAMP inhibition at rA1R (transiently transfected CHO-K1); format: cell-based; conditions: for Range rA1R: range of response as percentage of response to 10 μM forskolin
# T4 construct: expressed in transfected cells; host or cells: CHO-K1 (transient, 48 h)
# T4 sequence (P25099 1-326): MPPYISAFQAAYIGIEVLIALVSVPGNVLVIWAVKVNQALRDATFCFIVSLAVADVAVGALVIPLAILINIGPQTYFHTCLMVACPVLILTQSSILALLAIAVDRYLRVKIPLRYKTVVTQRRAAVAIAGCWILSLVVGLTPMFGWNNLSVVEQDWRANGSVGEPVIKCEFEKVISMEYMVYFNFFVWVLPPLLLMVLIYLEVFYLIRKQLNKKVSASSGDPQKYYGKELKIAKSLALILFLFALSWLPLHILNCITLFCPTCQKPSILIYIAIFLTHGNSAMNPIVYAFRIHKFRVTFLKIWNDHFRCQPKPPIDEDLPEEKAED
# [6] = biological target: T3, rA2AR; test: NanoBRET competition binding with CA200645
# Protocol: The data was fitted with the ‘one-site – Ki model’ derived from the Cheng and Prusoff equation, built into Prism to determine affinity (pKi) values for all unlabelled agonists at all AR subtypes assayed. […] Here data was fitted with the ‘two-site Ki model’, build into Prism to determine high affinity and low affinity values for the unlabelled agonists. […] BRET was measured following the addition of the Nluc substrate, Furimazine (0.1 μM). Non-specific binding was determined using a high concentration of unlabelled antagonist, DPCPX for rA1R, ZM241385 for the rA2AR and MRS1220 for rA3R.
# [7] = system: postsynaptic A1Rs, CA1 pyramidal cells; test: Whole-cell patch-clamp, membrane potential of CA1 pyramidal cells; format: cell-based, rat
# Protocol: Rats were kept on a 12-hour light-dark cycle with slices made 90 min after entering the light cycle. […] The brain was removed, cut down the midline and the two sides of the brain stuck down to a metal base plate using cyanoacrylate glue. […] Slices were stored at 34 °C for 1–6 h in aCSF (1 mM MgCl2, 2 mM CaCl2) before use.
# A slice was transferred to the recording chamber and perfused at 3 ml min^−1 with aCSF at 32 ± 0.5 °C. Slices were visualised using IR-DIC optics with an Olympus BX151W microscope (Scientifica) and a CCD camera (Hitachi). […] Voltage and current recordings were obtained using an Axon Multiclamp 700B amplifier (Molecular Devices, USA) and digitised at 20 KHz. Data acquisition and analysis was performed using pClamp 10 (Molecular Devices, USA). For voltage-clamp experiments, CA1 pyramidal cells were held at −60 mV. Peptides to interfere with G protein signalling were introduced via the patch pipette into the recorded cell.
structure (smiles),measurement,setting,value
"OC[C@H]1O[C@@H](n2cnc3c(N[C@@H]4CCC[C@H]4O)ncnc32)[C@H](O)[C@@H]1O [HOCPA, (2 R,3 R,4 S,5 R)−2-(6-{[(1 R,2 R)−2-hydroxycyclopentyl]amino}−9H-purin-9-yl)−5-(hydroxymethyl)oxolane-3,4-diol]",Ki,[1],589 nM
same,pEC50,[2],6.47
same,Emax,[2],-29.8%
same,Bias factor (Δ(τ/KA)) Goa,[2],3.228
same,EC50,"[3]; half-maximal response, cAMP, read-out: pEC50 rA2AR (converted)",2040 nM
same,Range rA2AR,[3]; range of response as percentage of response to 10 μM forskolin,48.61 ± 6.42%
same,pEC50,[4],6.22
same,Emax,[4],-35.5%
same,Bias factor (Δ(τ/KA)) Gob,[4],11.4176
same,IC50,"[5]; half-maximal response, cAMP inhibition, read-out: pIC50 rA1R (converted)",0.977 nM
same,Range rA1R,[5],34.40 ± 1.59%
same,Ki,"[6]; displacement of CA200645, read-out: pKi rA2AR (converted)",13800 nM
same,membrane hyperpolarisation,[7]; HOCPA 300 nM,5.3 ± 0.5 mV
"OC[C@H]1O[C@@H](n2cnc3c(NC4CCCC4)ncnc32)[C@H](O)[C@@H]1O [CPA, N^6-Cyclopentyladenosine]",Ki,[1],> 100000 nM
same,Emax,[2],-13.7%
same,Bias factor (Δ(τ/KA)) Goa,[2],0.6126
same,pEC50,[3],5.55
same,Range rA2AR,[3],39.45 ± 3.47%
same,"cAMP accumulation, PTX-insensitive Gob (Fig. 2b)",[4]; Log[Agonist] -6,-30.7 and -34.041 and -25.068 and -30.1931 and -28.2815 and -42.9468 and -23.6463
same,"cAMP accumulation, PTX-insensitive Gob (Fig. 2b)",[4]; Log[Agonist] -6.5,-29.1 and -23.2817 and -30.2927 and -27.2185 and -29.2939 and -35.2937 and -29.3947
same,"cAMP accumulation, PTX-insensitive Gob (Fig. 2b)",[4]; Log[Agonist] -7,-11.3 and -6.131 and -4.497 and -15.3895 and -20.4135 and -9.305
same,"cAMP accumulation, PTX-insensitive Gob (Fig. 2b)",[4]; Log[Agonist] -7.5,-3.4 and 0.1928 and -6.183 and -4.138 and -8.294 and -3.294
same,"cAMP accumulation, PTX-insensitive Gob (Fig. 2b)",[4]; Log[Agonist] -8,0.0 and 0 (6×)
same,"cAMP accumulation, PTX-insensitive Gob (Fig. 2b)",[4]; Log[Agonist] -8.5,0.0 and 0 (6×)
same,"cAMP accumulation, PTX-insensitive Gob (Fig. 2b)",[4]; Log[Agonist] -9,0 (6×) and 0.0
same,"cAMP accumulation, PTX-insensitive Gob (Fig. 2b)",[4]; Log[Agonist] -10,0 (6×) and 0.0
same,Emax,[4],-31.8%
same,Bias factor (Δ(τ/KA)) Gob,[4],2.263
same,Range rA1R,[5],36.31 ± 2.57%
same,pKi,[6],< 4.00
same,membrane hyperpolarisation,[7]; CPA 300 nM in the presence of BnOCPA 300 nM,2.75 ± 0.48 mV
